Test results reported in patent publication US20110319464A1, “METHODS FOR TREATING BENIGN PROSTATIC HYPERPLASIA” (KISSEI PHARMACEUTICAL CO., LTD., priority 2007, published 2011).

Assays:
Assay type in all cases: in vivo, human
[1] = test system: symptoms associated with BPH; test: Efficacy Studies on Silodosin, studies A-E compared (once daily vs twice daily); conditions: Tables 6 and 7
Description: In addition, the results for IPSS/AUASS for studies A, B, D and E are illustrated in FIGS. 3 to 6, respectively, and the results for Qmax for studies A, B, D and E are illustrated in FIGS. 7 to 10, respectively.

symptoms of BPH [2] = test: Study C: 4 mg or 8 mg Silodosin Once Daily (KMD-3213-US021-99), U.S. Phase 2 Study; conditions: for Incidence of Adverse Events: Dizziness / Incidence of Adverse Events: Orthostatic Hypotension / Incidence of Adverse Events: Syncope / Mean Change From Baseline (CFB) in Maximum Flow Rate / IPSS/AUASS baseline value / Maximum Flow Rate baseline value / Mean Change From Baseline (CFB) in IPSS/AUASS: Study C; for IPSS/AUASS baseline value / Maximum Flow Rate baseline value: Week 0
Description: The 6-week stable dosing period was preceded by a 4-week placebo lead-in and a 2-week titration period. […] Male patients were selected who were at least 45 years of age with signs and symptoms of BPH (AUASS of 13 and maximum urine flow rate between 4 and 15 mL/sec). In addition, the results for IPSS/AUASS for studies A, B, D and E are illustrated in FIGS. 3 to 6, respectively, and the results for Qmax for studies A, B, D and E are illustrated in FIGS. 7 to 10, respectively.

symptoms of BPH [3] = test: Study A: 4 mg Silodosin Twice Daily (KMD-202), Japanese Phase 2 Study; conditions: 4 mg twice daily
Description: Patients were males who were at least 50 years of age and who had at least two of the following three variables classified as moderate, or at least one variable classified as severe: IPSS/AUASS, Qmax and QoL. In addition, the results for IPSS/AUASS for studies A, B, D and E are illustrated in FIGS. 3 to 6, respectively, and the results for Qmax for studies A, B, D and E are illustrated in FIGS. 7 to 10, respectively.

[4] = 4 mg once daily, Visit 3 (Day 29), Post-dose (2-6 hr), LOCF
[5] = 4 mg once daily, Visit 4 (Day 36), LOCF
[6] = 4 mg once daily, Visit 4 (Day 36), Post-dose (2-6 hr), LOCF
[7] = 4 mg once daily, Visit 5 (Day 43), LOCF
[8] = 4 mg once daily, Visit 5 (Day 43), Post-dose (2-6 hr), LOCF
[9] = 4 mg once daily, Visit 6 (Day 64), LOCF
[10] = 4 mg once daily, Visit 6 (Day 64), Post-dose (2-6 hr), LOCF
[11] = 4 mg once daily, Visit 7 (EOS, Day 84), LOCF
[12] = 4 mg once daily, Visit 7 (EOS, Day 84), Post-dose (2-6 hr), LOCF
[13] = 8 mg once daily, Visit 3 (Day 29), Post-dose (2-6 hr), LOCF
[14] = 8 mg once daily, Visit 4 (Day 36), LOCF
[15] = 8 mg once daily, Visit 4 (Day 36), Post-dose (2-6 hr), LOCF
[16] = 8 mg once daily, Visit 5 (Day 43), LOCF
[17] = 8 mg once daily, Visit 5 (Day 43), Post-dose (2-6 hr), LOCF
[18] = 8 mg once daily, Visit 6 (Day 64), LOCF
[19] = 8 mg once daily, Visit 6 (Day 64), Post-dose (2-6 hr), LOCF
[20] = 8 mg once daily, Visit 7 (EOS, Day 84), LOCF
[21] = 8 mg once daily, Visit 7 (EOS, Day 84), Post-dose (2-6 hr), LOCF

## C[C@H](Cc1cc2c(c(C(N)=O)c1)N(CCCO)CC2)NCCOc1ccccc1OCC(F)(F)F [Silodosin]
[1]
  mean changes in IPSS/AUASS and Qmax, 8 mg once daily compared with 4 mg twice daily: comparable
Symptoms of BPH [2]; [4]
  Q-max, Mean (SD): 12.2 (4.4) ml/sec
  Q-max, Mean change (SD): 2.5 (3.6) ml/sec
Symptoms of BPH [2]; 4 mg once daily, Visit 3 (baseline, Day 29), Pre-dose, LOCF
  Q-max, Mean (SD): 9.7 (3.0) ml/sec
Symptoms of BPH [2]; 4 mg once daily, Visit 3 (baseline, Day 29), modified intent to treat (LOCF)
  Total IPSS/AUASS Score, Mean (SD): 19.7 (5.1)
Symptoms of BPH [2]; [5]
  Total IPSS/AUASS Score, Mean (SD): 17.3 (5.6)
  Total IPSS/AUASS Score, Mean change (SD): −2.4 (4.0)
Symptoms of BPH [2]; [6]
  Q-max, Mean (SD): 12.4 (4.7) ml/sec
  Q-max, Mean change (SD): 2.7 (4.4) ml/sec
Symptoms of BPH [2]; [7]
  Total IPSS/AUASS Score, Mean (SD): 15.5 (5.6)
  Total IPSS/AUASS Score, Mean change (SD): −4.2 (4.5)
Symptoms of BPH [2]; [8]
  Q-max, Mean (SD): 12.2 (4.7) ml/sec
  Q-max, Mean change (SD): 2.6 (4.2) ml/sec
Symptoms of BPH [2]; [9]
  Total IPSS/AUASS Score, Mean (SD): 14.6 (6.0)
  Total IPSS/AUASS Score, Mean change (SD): −5.1 (5.1)
Symptoms of BPH [2]; [10]
  Q-max, Mean (SD): 12.0 (4.3) ml/sec
  Q-max, Mean change (SD): 2.3 (4.1) ml/sec
Symptoms of BPH [2]; [11]
  Total IPSS/AUASS Score, Mean (SD): 13.9 (6.0)
  Total IPSS/AUASS Score, Mean change (SD): −5.7 (5.5)
Symptoms of BPH [2]; [12]
  Q-max, Mean (SD): 12.6 (4.4) ml/sec
  Q-max, Mean change (SD): 2.9 (4.0) ml/sec
Symptoms of BPH [2]; [13]
  Q-max, Mean (SD): 11.7 (3.5) ml/sec
  Q-max, Mean change (SD): 2.0 (3.1) ml/sec
Symptoms of BPH [2]; 8 mg once daily, Visit 3 (baseline, Day 29), Pre-dose, LOCF
  Q-max, Mean (SD): 9.6 (2.7) ml/sec
Symptoms of BPH [2]; 8 mg once daily, Visit 3 (baseline, Day 29), modified intent to treat (LOCF)
  Total IPSS/AUASS Score, Mean (SD): 20.8 (5.3)
Symptoms of BPH [2]; [14]
  Total IPSS/AUASS Score, Mean (SD): 18.0 (6.0)
  Total IPSS/AUASS Score, Mean change (SD): −2.7 (3.7)
Symptoms of BPH [2]; [15]
  Q-max, Mean (SD): 12.5 (4.8) ml/sec
  Q-max, Mean change (SD): 2.9 (4.4) ml/sec
Symptoms of BPH [2]; [16]
  Total IPSS/AUASS Score, Mean (SD): 16.5 (6.0)
  Total IPSS/AUASS Score, Mean change (SD): −4.3 (3.9)
Symptoms of BPH [2]; [17]
  Q-max, Mean (SD): 12.5 (5.7) ml/sec
  Q-max, Mean change (SD): 2.9 (5.4) ml/sec
Symptoms of BPH [2]; [18]
  Total IPSS/AUASS Score, Mean (SD): 15.9 (6.4)
  Total IPSS/AUASS Score, Mean change (SD): −4.9 (4.6)
Symptoms of BPH [2]; [19]
  Q-max, Mean (SD): 12.9 (5.6) ml/sec
  Q-max, Mean change (SD): 3.2 (5.5) ml/sec
Symptoms of BPH [2]; [20]
  Total IPSS/AUASS Score, Mean (SD): 14.0 (6.5)
  Total IPSS/AUASS Score, Mean change (SD): −6.8 (5.8)
Symptoms of BPH [2]; [21]
  Q-max, Mean (SD): 13.0 (5.8) ml/sec
  Q-max, Mean change (SD): 3.5 (5.7) ml/sec
Symptoms of BPH [2]; 4 mg once daily
  Incidence of Adverse Events: Dizziness: 9.1 % of patients
  Incidence of Adverse Events: Orthostatic Hypotension: 4.5 % of patients
  Incidence of Adverse Events: Syncope: 0 % of patients
  IPSS/AUASS baseline value: 19.7
  Maximum Flow Rate baseline value: 9.7 mL/s
Symptoms of BPH [2]; 4 mg once daily, 2-6 hrs after 1st dose
  Mean Change From Baseline (CFB) in Maximum Flow Rate: 2.5 mL/s
Symptoms of BPH [2]; 4 mg once daily, Week 1
  Mean Change From Baseline (CFB) in IPSS/AUASS: −2.4
  Mean Change From Baseline (CFB) in Maximum Flow Rate: 2.7 mL/s
Symptoms of BPH [2]; 4 mg once daily, Week 2
  Mean Change From Baseline (CFB) in IPSS/AUASS: −4.2
  Mean Change From Baseline (CFB) in Maximum Flow Rate: 2.6 mL/s
Symptoms of BPH [2]; 4 mg once daily, Week 5
  Mean Change From Baseline (CFB) in IPSS/AUASS: −5.1
  Mean Change From Baseline (CFB) in Maximum Flow Rate: 2.3 mL/s
Symptoms of BPH [2]; 4 mg once daily, Week 8
  Mean Change From Baseline (CFB) in IPSS/AUASS: −5.7
  Mean Change From Baseline (CFB) in Maximum Flow Rate: 2.9 mL/s
Symptoms of BPH [2]; 8 mg once daily
  Incidence of Adverse Events: Dizziness: 5.6 % of patients
  Incidence of Adverse Events: Orthostatic Hypotension: 3.3 % of patients
  Incidence of Adverse Events: Syncope: 0 % of patients
  IPSS/AUASS baseline value: 20.8
  Maximum Flow Rate baseline value: 9.6 mL/s
Symptoms of BPH [2]; 8 mg once daily, 2-6 hrs after 1st dose
  Mean Change From Baseline (CFB) in Maximum Flow Rate: 2.0 mL/s
Symptoms of BPH [2]; 8 mg once daily, Week 1
  Mean Change From Baseline (CFB) in IPSS/AUASS: −2.7
  Mean Change From Baseline (CFB) in Maximum Flow Rate: 2.9 mL/s
Symptoms of BPH [2]; 8 mg once daily, Week 2
  Mean Change From Baseline (CFB) in IPSS/AUASS: −4.3
  Mean Change From Baseline (CFB) in Maximum Flow Rate: 2.9 mL/s
Symptoms of BPH [2]; 8 mg once daily, Week 5
  Mean Change From Baseline (CFB) in IPSS/AUASS: −4.9
  Mean Change From Baseline (CFB) in Maximum Flow Rate: 3.2 mL/s
Symptoms of BPH [2]; 8 mg once daily, Week 8
  Mean Change From Baseline (CFB) in IPSS/AUASS: −6.8
  Mean Change From Baseline (CFB) in Maximum Flow Rate: 3.4 mL/s
Symptoms of BPH [3]
  Incidence of Adverse Events: Dizziness: 2.2 % of patients
  Incidence of Adverse Events: Orthostatic Hypotension: 1.1 % of patients
  Incidence of Adverse Events: Syncope: 0 % of patients
Symptoms of BPH [3]; Week 0
  IPSS/AUASS baseline value: 18.7
  Maximum Flow Rate baseline value: 10.70 mL/s
Symptoms of BPH [3]; Week 2
  Mean Change From Baseline (CFB) in IPSS/AUASS: −5.6
Symptoms of BPH [3]; Week 4
  Mean Change From Baseline (CFB) in IPSS/AUASS: −6.6
  Mean Change From Baseline (CFB) in Maximum Flow Rate: 1.31 mL/s
